Results on 1 substance are retold here after patent US20250059499A1, “CELL-SURFACE ENGINEERING COMPOSITIONS AND METHODS FOR THE PREVENTION OF IMMUNE REJECTION” (THE UNIVERSITY OF BRITISH COLUMBIA, priority 2021, published 2025).

“Also recorded” adds a separate entry of the source. LPG = linear polyglycerol, Mn 14,900 Da

Data set [1] relates to IL-2 activated PBMCs on TNF-α activated Ea.hy926 monolayers. The experiment in a line: PBMC adhesion to endothelial surfaces. Particulars: 0.5 mM LPG-Q or 0.56 mM LPG-Q-Sia3Lac. Type of data set: cell-based, human. As to the method: Confluent Ea.hy926 monolayers seeded in a 48 well plate (30,000 cells/well) were activated with TNF-α (2000 U/mL, 3 hours). To obtain PBMCs, EDTA anticoagulated blood from healthy donors was subjected to ficoll density gradient centrifugation Histopaque™-1077 (Sigma Aldrich™). PBMCs were cultured for 24 h in RPMI-1640 containing 10% FBS (v/v), 1000 U/mL recombinant human IL-2 (Cedarlane™)^11 and 1% P/S. Prior to fluorescent labelling, cultured PBMCs were tested for absence of platelets by labelling an aliquot of cells with FITC-labelled anti-human […] (1:200 Beckman Coulter™) and analyzed by flow cytometry (CytoFLEX™, Beckman Coulter™). PBMCs containing <1% platelets were implemented for further study. The PBMC composition was also measured using a hematological analyzer (XN-550™ automated hematology analyzer, Sysmex Canada Inc.™). Following IL-2 treatment the typical composition of the PBMCs were ˜80% lymphocytes, 5% immature granulocytes, 2% basophils and 13% monocytes. […] PMBC adhesion was quantified by lysing the cells with RIPA buffer, spinning at 15,000 g to remove cell debris and measuring the fluorescent intensity of the CMFDA Dye in the lysate (λex/λem=492/517 nm using a plate reader (Spectramax3™, Molecular Devices™).

The test system of data set [2] is Ea.hy926 cells. The experiment in a line: Lifetime of grafted polymer on the cell surface. Type of data set: cell-based. The conditions noted are these: 37° C., after ligation with 0.5 mM polymer. Here is the method: For lifetime measurements, polymers were attached to endothelial surfaces according to procedures outlined herein using 0.5 mM LPG-Q (10% BODIPY FL™) and exchanged into phenol-free DMEM (5% FBS, pen/strep) and incubated at 37° C. and 5% CO2. For each time point the supernatant was removed and saved for further analysis and the cell monolayers were trypsinized and subjected to flow cytometry (CytoFLEX™, Beckman Coulter™) in which 10,000 events were acquired and the median fluorescent intensity (MFI) in the 488 channel was recorded. The fluorescent intensity of the BODIPY-FL Dye in the supernatant was measured (λex/λem=503/520 nm using) a plate reader (Spectramax i3™, Molecular Devices™). Intensity values were normalized to the total cell number in each well as assessed by a trypan blue staining assay.

The test system of data set [3] is TNF-α activated Ea.hy926 cells co-cultured with IL-2 activated PBMCs.
Experimental: (§1) EA.hy 926 monolayers were activated using TNF-α and PBMCs were activated using IL-2 as described in PBMC adhesion experiments. Following activation, PBMC was collected and resuspended in DMEM (Phenol free, 5% FBS, pen/strep). PBMCs were then added to activated EA.hy 926 monolayers (modified and unmodified) to a final concentration of 0.15×10^6 cells/mL and left to incubate at 37° C. and 5% CO2 for 18 hour. After treatment, the supernatant was collected and cell debris was removed through centrifugation. LDH content was measured using LDC cytotoxicity assay (Biovision Inc.™). Cytotoxicity was calculated using the equation below;
(§2) where, LDHsample is the amount of LDH released from the sample, LDHPBMC is the amount of LDH released from PBMC samples not subjected to EA.hy 926 monolayers, LDHalive is the amount of LDH released from EA.hy 926 monolayers not subjected to PBMCs, and LDHdead is the amount of LDH released of EA.hy926 monolayers treated with RIPA buffer for 10 minutes at room temperature.
Data set [4] deals with Ea.hy926 cells. The data set can be described thus: Enzyme-mediated glycocalyx removal from endothelial surface (loss of attached polymer). In kind it is cell-based. The conditions noted are these: 0.1 mM H2O2 and 1 nM epinephrine, 1 hour at 37° C. Here is the method:
Ea.hy926 endothelial cells were treated with 0.5 mM LPG-SS or LPG-Q (containing 10% BODIPY FL) for 30 min at 4° C. in UW solution fortified with 3 mM GSH, 5 mM CaCl2, 0.2 U/mL gtTGase. […] Cells were washed, trypsinized and immediately subjected to flow cytometry. Controls with no enzyme treatment were used to set gates for 100% labeled cell populations.

In data set [5] the test system is TNF-α activated Ea.hy926 cells co-cultured with IL-2 activated PBMCs. The data set can be described thus: PBMC-mediated cytotoxicity (LDH assay).
Experimental: as §1, §2
The test system of data set [6] is Ea.hy926 cells. The data set can be described thus: Polymer attachment to endothelial cell surface by flow cytometry (BODIPY FL-labelled polymer). Type of data set: cell-based. Here is the method: Ea.hy 926 cells at […] confluence were trypsinized and plated in a 96 well plate at 15,000 cells/well. Cells reached 100% confluence at day 3 and allowed to grow for a further 4 days at 37° C. and 5% CO2. Cells were washed twice with cold DPBS and incubated with UW solution freshly supplemented with 3 mM GSH, 5 mM CaCl2, 0.2 […] and 0.5 mM LPG-Q or 0.56 mM glycopolymers ([…]) unless otherwise noted. The solutions were mixed thoroughly and incubated at 4° C. for 30 minutes under static conditions. The cell supernatant was collected and the cells were washed three times with PBS and subjected to further analysis. The assessment of polymer attachment to endothelial cells are assessed by ammonia assay, flow cytometry and polymer mediated cell-surface camouflage of surface proteins. […] To quantify the extent of cell surface engineering, polymers were attached to endothelial surfaces according to the general cell surface engineering procedures outlined in previously using polymer in which 10% were labelled with BODIPY FLTM (ratio of non-labeled polymer: BODIPY labeled polymer=9:1). The cell monolayers were trypsinized and subjected to flow cytometry (CytoFLEXTM, Beckman CoulterTM) in which 10,000 events were acquired and the median fluorescent intensity (MFI) in the 488 channel was recorded.

The next data set has as its system cell-surface ICAM-1. The data set can be described thus: ICAM-1 labelling by flow cytometry (immunocamouflage). In kind it is cell-based, human. Particulars: TNF-α activated Ea.hy926, 0.2-3.0 mM polymer, UW, 4° C. Here is the method: For ICAM-1 labelling, Ea.hy926 cells were activated with TNF-α (2000 U/mL, 3 hours)^9 in serum deficient DMEM to stimulate the expression of ICAM-1 on the cell surface before polymer attachment. To account for differences in reactivity between Q-tagged polymers, concentrations of polymer added to the solution were adjusted using NH3 generation data to ensure that a similar number of polymers attached to the cell surface. Following polymer attachment, the cells were fixed, and labelled with PE-Cy™5 Mouse Anti-Human CD54 (1:20, BD Biosciences™) for 20 minutes at room temp in the dark. The cell monolayers were trypsinized and subjected to flow cytometry (CytoFLEX™, Beckman Coulter™) in which 10,000 events were acquired and the median fluorescent intensity in the 667 channel was recorded

As for “linear polyglycerol glutamine (Ac-GQQQLGGGGG-{LPG}; not fully specified; also: part of the polymer BODIPY FL-labelled in some experiments) [LPG-Q]”, in data set [1], the “reduction of PBMC adhesion to endothelial cells compared to the control” value is around 2.8 fold. Besides, the “half-life (t1/2) on the cell surface” value with Ea.hy926 cells [2] was determined as 8 h. Further, in data set [3], the “decrease of PBMC-mediated cytotoxicity compared to unmodified cells” value is given as “under 2 fold” and the “dependence of PBMC-mediated cytotoxicity suppression on polymer concentration or sialylation” value is reported as “no continued significant increase in immunosuppression was observed beyond 0.27 mM”. In the data set on Ea.hy926 cells [4], the “polymer retained / glycocalyx specificity after enzyme-mediated glycocalyx removal” value is on record as “higher specificity for glycocalyx modification”. In addition, in data set [5], the “immunosuppression on the cell surface compared with polymer in solution” value is on record as “more potent immunosuppression than LPG-Q-Sia3Lac in solution”. Moreover, the “PBMC-mediated endothelial cell death, in words” value in data set [5] (polymer ligated to cell surface) is “suppress PBMC-mediated endothelial cell death”. The “LPG-Q attachment versus concentration” value in the data set on Ea.hy926 cells [6] (0.2 mM-3.0 mM, 4° C., 30 minutes, UW solution with gtTGase) was “dose-dependent increase”. In the data set with Ea.hy926 cells [6] (30 min at 4° C. in UW solution with gtTGase, versus LPG-SS), the “levels of cell-surface labelling, enzyme-mediated approach compared to succinimidyl succinate amine coupling” value is recorded as around 4.4 fold. In the data set with cell-surface ICAM-1, the “detection of ICAM-1 on the surface of endothelial cells” value is on record as “camouflages pro-inflammatory ICAM-1 receptors in a dose-dependent manner; also recorded: reduced the detection of ICAM-1”.
